Values of other authors as cited in patent publication US20140348873A1, “Urea-Silicone Gel for Hyperkeratosis Treatment” (PROFESSIONAL COMPOUNDING CENTERS OF AMERICA, priority 2013, published 2014).

Conditions: general background statement; no experiment described

NC(N)=O [Urea]
water content of the skin, level reached with urea: 97.8%
